Assay results: ChEMBL document CHEMBL1155170, “Rapid dissemination and diversity of CTX-M extended-spectrum beta-lactamase genes in commensal Escherichia coli isolates from healthy children from low-resource settings in Latin America” (2007)

Assays:
Escherichia coli [1] = assay: Antimicrobial activity against CTX-M extended-spectrum beta-lactamase producing commensal Escherichia coli isolates from healthy children assessed as percent resistant isolates by disc diffusion method; assay type: functional
Escherichia coli [2] = assay: Antimicrobial activity against CTX-M-15 extended-spectrum beta-lactamase producing commensal Escherichia coli isolates from healthy children assessed as percent resistant isolates by disc diffusion method; assay type: functional

O=C(O)c1cn(C2CC2)c2cc(N3CCNCC3)c(F)cc2c1=O [CIPROFLOXACIN]
Activity (Escherichia coli [1]): 54% | Activity (Escherichia coli [2]): 93%

CN(C)[C@@H]1C(O)=C(C(N)=O)C(=O)[C@@]2(O)C(O)=C3C(=O)c4c(O)cccc4[C@@](C)(O)[C@H]3C[C@@H]12 [TETRACYCLINE]
Activity (Escherichia coli [1]): 86%

CCn1cc(C(=O)O)c(=O)c2ccc(C)nc21 [NALIDIXIC ACID]
Activity (Escherichia coli [1]): 57% | Activity (Escherichia coli [2]): 93%
